Experimental data from ChEMBL document CHEMBL3885881, “DrugMatrix”.

Species: Rattus norvegicus
Assay: DrugMatrix - Regimen: Daily Repeat
Format: toxicity, organism-based, Sprague-Dawley
Set-up: regimen Daily Repeat, gender Male, age 6-8 weeks
Conditions: in vivo, po, route oral GAVAGE, vehicle 100 % WATER; for ABSOLUTE BASOPHIL / ABSOLUTE EOSINOPHIL / ABSOLUTE LYMPHOCYTE / ABSOLUTE MONOCYTE / ABSOLUTE SEGMENTED NEUTROPHIL / BASOPHIL / EOSINOPHIL / ERYTHROCYTE COUNT / HEMATOCRIT / HEMOGLOBIN / LEUKOCYTE COUNT / LYMPHOCYTE / MEAN CORPUSCULAR HEMOGLOBIN / MEAN CORPUSCULAR HEMOGLOBIN CONCENTRATION / MEAN CORPUSCULAR VOLUME / MONOCYTE / NEUTROPHIL / NUCLEATED RED BLOOD CELLS / PLATELET COUNT: tissue Blood; for ALANINE AMINOTRANSFERASE / ALBUMIN / ALKALINE PHOSPHATASE / ASPARTATE AMINOTRANSFERASE / BLOOD UREA NITROGEN / CARBON DIOXIDE / CHLORIDE / CHOLESTEROL / CREATINE PHOSPHOKINASE / CREATININE / GLUCOSE / LACTATE DEHYDROGENASE / LIPASE / PHOSPHORUS / POTASSIUM / SODIUM / TOTAL BILIRUBIN / TOTAL PROTEIN / URIC ACID: tissue Plasma
[1] = 0 mg/kg, 72 h, dose level Control, time 3 day
[2] = 0 mg/kg, 120 h, dose level Control, time 5 day
[3] = 19.5 mg/kg, 72 h, dose level Low, time 3 day

`CN1CCC[C@H]1c1cccnc1` [NICOTINE] was tested, and the “ABSOLUTE BASOPHIL” value [1] was 0 CELLS/uL, the “ABSOLUTE EOSINOPHIL” value [1] was 0 CELLS/uL and the “ABSOLUTE LYMPHOCYTE” value [1] was 10386.33 CELLS/uL. The “ABSOLUTE MONOCYTE” value [1] was 88.5 CELLS/uL, the “ABSOLUTE SEGMENTED NEUTROPHIL” value [1] was 1008.5 CELLS/uL and the BASOPHIL [1] was 0%. For the same molecule, the EOSINOPHIL [1] was 0%, the “ERYTHROCYTE COUNT” value [1] was 5.16 x10E6/uL and the HEMATOCRIT [1] was 32.43%. The HEMOGLOBIN [1] was 12.98 G/DL, the “LEUKOCYTE COUNT” value [1] was 11.48 x10E3/uL and the LYMPHOCYTE [1] was 92.33%. The “MEAN CORPUSCULAR HEMOGLOBIN” value [1] was 25.23 pg, the “MEAN CORPUSCULAR HEMOGLOBIN CONCENTRATION” value [1] was 40.08 G/DL and the “MEAN CORPUSCULAR VOLUME” value [1] was 62.95 fL. The MONOCYTE [1] was 0.67%, the NEUTROPHIL [1] was 7% and the “NUCLEATED RED BLOOD CELLS” value [1] was 0 /100WBC. For the same molecule, the “PLATELET COUNT” value [1] was 1016.67 x10E3/uL, the “ALANINE AMINOTRANSFERASE” value [1] was 62.17 u/L and the ALBUMIN [1] was 3.95 G/DL. For the same molecule, the “ALKALINE PHOSPHATASE” value [1] was 363.5 u/L, the “ASPARTATE AMINOTRANSFERASE” value [1] was 118 u/L and the “BLOOD UREA NITROGEN” value [1] was 14.5 mg/dL. The “CARBON DIOXIDE” value [1] was 22.83 mmol/L, the CHLORIDE [1] was 100.67 MEQ/L and the CHOLESTEROL [1] was 66 mg/dL. The “CREATINE PHOSPHOKINASE” value [1] was 1308.83 u/L, the CREATININE [1] was 0.22 mg/dL and the GLUCOSE [1] was 187.5 mg/dL. The “LACTATE DEHYDROGENASE” value [1] was 380.17 u/L, the LIPASE [1] was 16.17 u/L and the PHOSPHORUS [1] was 14.27 mg/dL. For the same molecule, the POTASSIUM [1] was 6.8 MEQ/L, the SODIUM [1] was 142.53 MEQ/L and the “TOTAL BILIRUBIN” value [1] was 0.2 mg/dL. The “TOTAL PROTEIN” value [1] was 5.68 G/DL, the “URIC ACID” value [1] was 2.87 mg/dL and the “ABSOLUTE BASOPHIL” value [2] was 0 CELLS/uL. The “ABSOLUTE EOSINOPHIL” value [2] was 80 CELLS/uL, the “ABSOLUTE LYMPHOCYTE” value [2] was 13301.33 CELLS/uL and the “ABSOLUTE MONOCYTE” value [2] was 180.83 CELLS/uL. The “ABSOLUTE SEGMENTED NEUTROPHIL” value [2] was 1187.83 CELLS/uL, the BASOPHIL [2] was 0% and the EOSINOPHIL [2] was 0.5%. The “ERYTHROCYTE COUNT” value [2] was 5.54 x10E6/uL, the HEMATOCRIT [2] was 35.65% and the HEMOGLOBIN [2] was 14.22 G/DL. The “LEUKOCYTE COUNT” value [2] was 14.75 x10E3/uL, the LYMPHOCYTE [2] was 90.67% and the “MEAN CORPUSCULAR HEMOGLOBIN” value [2] was 25.65 pg. The “MEAN CORPUSCULAR HEMOGLOBIN CONCENTRATION” value [2] was 39.88 G/DL, the “MEAN CORPUSCULAR VOLUME” value [2] was 64.35 fL and the MONOCYTE [2] was 1%. For the same molecule, the NEUTROPHIL [2] was 7.83%, the “NUCLEATED RED BLOOD CELLS” value [2] was 0.17 /100WBC and the “PLATELET COUNT” value [2] was 1285.33 x10E3/uL. The “ALANINE AMINOTRANSFERASE” value [2] was 51.67 u/L, the ALBUMIN [2] was 4.08 G/DL and the “ALKALINE PHOSPHATASE” value [2] was 391.5 u/L. The “ASPARTATE AMINOTRANSFERASE” value [2] was 99.5 u/L, the “BLOOD UREA NITROGEN” value [2] was 15.5 mg/dL and the “CARBON DIOXIDE” value [2] was 28.33 mmol/L. For the same molecule, the CHLORIDE [2] was 101.83 MEQ/L, the CHOLESTEROL [2] was 67.83 mg/dL and the “CREATINE PHOSPHOKINASE” value [2] was 771.33 u/L. For the same molecule, the CREATININE [2] was 0.23 mg/dL, the GLUCOSE [2] was 156.5 mg/dL and the “LACTATE DEHYDROGENASE” value [2] was 544.33 u/L. The LIPASE [2] was 10.17 u/L, the PHOSPHORUS [2] was 12.03 mg/dL and the POTASSIUM [2] was 6.81 MEQ/L. The SODIUM [2] was 144.13 MEQ/L, the “TOTAL BILIRUBIN” value [2] was 0.22 mg/dL and the “TOTAL PROTEIN” value [2] was 6 G/DL. For the same molecule, the “URIC ACID” value [2] was 2.18 mg/dL, the “ABSOLUTE BASOPHIL” value [3] was 0 CELLS/uL and the “ABSOLUTE EOSINOPHIL” value [3] was 274 CELLS/uL. The “ABSOLUTE LYMPHOCYTE” value [3] was 12164.33 CELLS/uL, the “ABSOLUTE MONOCYTE” value [3] was 176.67 CELLS/uL and the “ABSOLUTE SEGMENTED NEUTROPHIL” value [3] was 1085 CELLS/uL. For the same molecule, the BASOPHIL [3] was 0%, the EOSINOPHIL [3] was 2% and the “ERYTHROCYTE COUNT” value [3] was 5.66 x10E6/uL. The HEMATOCRIT [3] was 36.1%, the HEMOGLOBIN [3] was 14.13 G/DL and the “LEUKOCYTE COUNT” value [3] was 13.7 x10E3/uL. For the same molecule, the LYMPHOCYTE [3] was 88.67%, the “MEAN CORPUSCULAR HEMOGLOBIN” value [3] was 24.97 pg and the “MEAN CORPUSCULAR HEMOGLOBIN CONCENTRATION” value [3] was 39.17 G/DL. The “MEAN CORPUSCULAR VOLUME” value [3] was 63.73 fL, the MONOCYTE [3] was 1.33% and the NEUTROPHIL [3] was 8%. The “NUCLEATED RED BLOOD CELLS” value [3] was 0 /100WBC, the “PLATELET COUNT” value [3] was 1341.67 x10E3/uL and the “ALANINE AMINOTRANSFERASE” value [3] was 53.67 u/L. The ALBUMIN [3] was 4.07 G/DL, the “ALKALINE PHOSPHATASE” value [3] was 372.67 u/L and the “ASPARTATE AMINOTRANSFERASE” value [3] was 86.33 u/L. The “BLOOD UREA NITROGEN” value [3] was 14 mg/dL, the “CARBON DIOXIDE” value [3] was 22 mmol/L and the CHLORIDE [3] was 103 MEQ/L. The CHOLESTEROL [3] was 69 mg/dL, the “CREATINE PHOSPHOKINASE” value [3] was 441.67 u/L and the CREATININE [3] was 0.28 mg/dL. For the same molecule, the GLUCOSE [3] was 182.33 mg/dL, the “LACTATE DEHYDROGENASE” value [3] was 226.33 u/L and the LIPASE [3] was 10.67 u/L. It also gave a PHOSPHORUS [3] of 12.5 mg/dL, a POTASSIUM [3] of 5.92 MEQ/L and an SODIUM [3] of 144.87 MEQ/L. The “TOTAL BILIRUBIN” value [3] was 0.2 mg/dL, the “TOTAL PROTEIN” value [3] was 5.77 G/DL and the “URIC ACID” value [3] was 1.67 mg/dL.
